Reference: patent US9193722B2, “Tri-cyclic pyrazolopyridine kinase inhibitors” (Vertex Pharmaceuticals Incorporated, priority 2008, dated 2015)

Columns and labels:
Type in all cases: biochemical
PKC delta kinase = PKC delta kinase (Homo sapiens, UniProt Q05655); experiment: PKC delta kinase inhibition, coupled-enzyme (NADH absorbance) assay, Ki; settings: 150 μM ATP, 46 nM PKC delta kinase, 30° C.; read-out: Ki PKC delta
Summary of the method: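 Enzyme and compound pre-equilibrated 10 min at 30° C before adding ATP to 150 μM final. Buffer: HEPES pH 7.5 (100 mM), 10 mM MgCl2, 25 mM NaCl, 0.1 mM EDTA, 0.01% Brij.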

PKC theta kinase = PKC theta kinase (Homo sapiens, UniProt Q04759); experiment: PKC theta kinase inhibition, coupled-enzyme (NADH absorbance) assay, Ki; settings: 240 μM ATP, 18 nM PKC theta kinase, 30° C.
Sequence of PKC theta kinase (Q04759 whole entry): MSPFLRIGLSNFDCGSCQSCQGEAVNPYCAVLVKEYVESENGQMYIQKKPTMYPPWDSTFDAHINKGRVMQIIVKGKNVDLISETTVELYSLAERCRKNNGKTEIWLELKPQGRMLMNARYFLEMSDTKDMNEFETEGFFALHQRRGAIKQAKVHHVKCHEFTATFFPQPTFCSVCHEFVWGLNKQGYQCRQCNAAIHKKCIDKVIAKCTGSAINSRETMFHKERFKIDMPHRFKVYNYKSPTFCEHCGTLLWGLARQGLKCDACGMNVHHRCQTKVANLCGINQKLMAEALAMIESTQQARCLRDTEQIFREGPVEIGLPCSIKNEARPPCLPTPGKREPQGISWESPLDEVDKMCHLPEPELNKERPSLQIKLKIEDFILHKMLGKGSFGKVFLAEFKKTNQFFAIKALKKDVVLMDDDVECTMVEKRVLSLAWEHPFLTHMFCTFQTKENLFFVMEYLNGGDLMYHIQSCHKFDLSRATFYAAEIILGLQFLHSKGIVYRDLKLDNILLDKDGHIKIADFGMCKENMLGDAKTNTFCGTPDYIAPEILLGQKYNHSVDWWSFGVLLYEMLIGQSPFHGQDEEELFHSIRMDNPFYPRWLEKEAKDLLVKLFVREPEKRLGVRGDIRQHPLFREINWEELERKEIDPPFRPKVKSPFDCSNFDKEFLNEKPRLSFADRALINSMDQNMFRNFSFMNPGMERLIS
Summary of the method: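 Enzyme and compound equilibrated 10 min at 30 °C before reaction in HEPES pH 7.5 buffer with MgCl2, NaCl, EDTA and Brij. Activity tracked as NADH loss at 340 nm through a coupled system. Initial-rate data fitted by non-linear regression to give Ki.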

PKC alpha kinase = PKC alpha kinase (Homo sapiens, UniProt P17252); experiment: PKC alpha kinase inhibition, coupled-enzyme (NADH absorbance) assay, Ki; settings: 130 μM ATP, 4.5 nM PKC alpha kinase, 30° C.
Summary of the method: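 Ki derived by non-linear regression of initial rates from a coupled assay tracking NADH absorbance at 340 nm over 15 min at 30 °C. ATP was 130 μM final after a 10 min compound–enzyme preincubation in HEPES pH 7.5 buffer with MgCl2, CaCl2, NaCl, EDTA and Brij.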

Sequence of PKC delta kinase (Q05655 whole entry): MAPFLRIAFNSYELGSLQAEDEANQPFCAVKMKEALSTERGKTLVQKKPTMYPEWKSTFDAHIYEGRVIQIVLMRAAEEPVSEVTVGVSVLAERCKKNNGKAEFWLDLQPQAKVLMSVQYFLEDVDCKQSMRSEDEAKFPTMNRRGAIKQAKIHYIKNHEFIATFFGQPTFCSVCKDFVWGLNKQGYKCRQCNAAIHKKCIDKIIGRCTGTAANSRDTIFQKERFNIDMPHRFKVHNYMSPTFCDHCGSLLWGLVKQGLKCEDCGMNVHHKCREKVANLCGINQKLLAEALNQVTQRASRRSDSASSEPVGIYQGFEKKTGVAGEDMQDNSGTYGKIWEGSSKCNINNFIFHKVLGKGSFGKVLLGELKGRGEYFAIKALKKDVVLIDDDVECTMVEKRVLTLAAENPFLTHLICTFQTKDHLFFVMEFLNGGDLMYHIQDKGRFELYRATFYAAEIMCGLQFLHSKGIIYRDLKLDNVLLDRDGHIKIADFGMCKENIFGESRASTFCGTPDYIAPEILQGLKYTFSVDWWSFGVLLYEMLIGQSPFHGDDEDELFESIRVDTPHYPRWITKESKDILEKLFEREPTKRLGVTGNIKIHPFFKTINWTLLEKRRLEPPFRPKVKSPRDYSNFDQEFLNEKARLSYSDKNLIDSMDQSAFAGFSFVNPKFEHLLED

| Structure (SMILES) | Ki (PKC delta kinase) [nM] | Ki (PKC theta kinase) [nM] | Ki (PKC alpha kinase) [nM] |
| --- | --- | --- | --- |
| CC(O)(C1CC1)C1CN(c2ccc(F)c(-c3n[nH]c4ncccc34)n2)CCN1 (stereo not drawn) [Compound 247] | < 500 | < 50 | < 2800 |
| CC(C)C(O)C1CN(c2ccc(F)c(-c3n[nH]c4ncccc34)n2)CCN1 (stereo not drawn) [Compound 252] | < 500 | < 50 | < 2800 |
| CC(C)C(N)[C@H]1CCCN(c2ccc(C(F)(F)F)c(-c3n[nH]c4ncccc34)n2)C1 (stereo partly drawn) [Compound 265] | < 500 | < 500 | > 1250 |
| CC(C)(C)C[C@H]1CN(c2cccc(-c3n[nH]c4ncccc34)n2)CCN1 [Compound 139] | < 50 | < 50 | < 2800 |
| CN(C)C(=O)CC1CN(c2ccc(C(F)(F)F)c(-c3n[nH]c4ncccc34)n2)CCN1 (stereo not drawn) [Compound 211] | > 1250 | > 700 | > 1250 |
| CC(C)C[C@H]1CN(c2ccc(C(F)(F)F)c(-c3n[nH]c4ncccc34)n2)C[C@@H](C)N1 [Compound 203] | < 500 | < 50 | < 500 |
| C=C(F)c1cc(-c2n[nH]c3ncccc23)nc(N2CCC(N)CC2)c1 [Compound 106] | > 1250 | < 500 | > 1250 |
| CC(C)CC1(C)CN(c2ccc(Cl)c(-c3n[nH]c4ncccc34)n2)CCN1 (stereo not drawn) [Compound 86] | < 50 | < 50 | < 50 |
| CC(C)(F)C(C)(O)C1CN(c2ccc(F)c(-c3n[nH]c4ncccc34)n2)CCN1 (stereo not drawn) [Compound 254] | < 50 | < 1 | > 1250 |
| C[C@H]1CNCCN1c1cccc(-c2n[nH]c3ncccc23)n1 [Compound 30] | < 500 | < 50 | < 500 |
| CC(C)CC1CN(c2ccc(C(F)(F)F)c(-c3n[nH]c4ncccc34)n2)CC(CF)N1 (stereo not drawn) [Compound 217] | > 1250 | > 700 | > 1250 |
| CC(C)C[C@H]1CN(c2ccc(C(F)(F)F)c(-c3n[nH]c4ncccc34)n2)C[C@H](C)N1 [Compound 202] | > 1250 | > 700 | > 1250 |
| c1cc(-c2n[nH]c3ncccc23)nc(N2CCOCC2)c1 [Compound 27] | > 2000 | > 700 | < 2800 |
| FC(F)(F)c1ccc(N2CCN[C@@H](CC3CC3)C2)nc1-c1n[nH]c2ncccc12 [Compound 165] | > 1250 | < 500 | > 1250 |
| CC(C)(C)C(N)C1CCCN(c2ccc(F)c(-c3n[nH]c4ncccc34)n2)C1 (stereo not drawn) [Compound 308] | < 2800 | < 50 | > 1250 |
| CC(C)(C)C(N)C1CCCN(c2ccc(F)c(-c3n[nH]c4ncccc34)n2)C1 (stereo not drawn) [Compound 307] | < 50 | < 1 | < 500 |
| CC(C)C[C@]1(O)CN(c2ccc(C(F)(F)F)c(-c3n[nH]c4ncccc34)n2)CC[C@@H]1N [Compound 219] | < 500 | < 500 | < 2800 |
| CC(C)C[C@@]1(O)CN(c2ccc(F)c(-c3n[nH]c4ncccc34)n2)CC[C@@H]1N [Compound 269] | < 500 | < 50 | < 500 |
| CC(C)C[C@H]1CC(F)(c2cccc(-c3n[nH]c4ncccc34)n2)CCN1 (stereo partly drawn) [Compound 146] | < 2800 | < 500 | > 1250 |

Next, values leading:

| Ki (PKC delta kinase) [nM] | Ki (PKC theta kinase) [nM] | Ki (PKC alpha kinase) [nM] | Structure (SMILES) |
| --- | --- | --- | --- |
| < 2800 | < 2800 | < 2800 | NCc1cccc(-c2cccc(-c3n[nH]c4ncccc34)n2)c1 [Compound 335] |
| > 1250 | < 500 | > 1250 | CC(C)C(C)(O)[C@H]1CCCN(c2ccc(F)c(-c3n[nH]c4ncccc34)n2)C1 (stereo partly drawn) [Compound 277] |
| > 1250 | < 50 | > 1250 | CC1(C)CC1(O)C1CN(c2ccc(F)c(-c3n[nH]c4ncccc34)n2)CCN1 (stereo not drawn) [Compound 380] |
| < 2800 | < 500 | > 1250 | CC(C)(N)C1CCN(c2ccc(F)c(-c3n[nH]c4ncccc34)n2)C1 (stereo not drawn) [Compound 360] |
| < 500 | < 50 | > 1250 | NCC1CCN(c2cc(CO)cc(-c3n[nH]c4ncccc34)n2)CC1 [Compound 453] |
| > 1250 | < 500 | > 1250 | CCC[C@H]1CN(c2ccc(F)c(-c3n[nH]c4ncccc34)n2)C[C@H]1N [Compound 338] |
| < 2800 | < 50 | > 1250 | CC(C)CC1(O)CN(c2ccc(C(F)(F)F)c(-c3n[nH]c4ncccc34)n2)CCC1C#N (stereo not drawn) [Compound 401] |
| < 500 | < 500 | > 1250 | CC1(C)CN(c2ccc(C(F)(F)F)c(-c3n[nH]c4ncccc34)n2)CCC1N (stereo not drawn) [Compound 428] |
| > 1250 | < 2800 | > 1250 | NCC1CN(c2cc(C(F)(F)F)cc(-c3n[nH]c4ncccc34)n2)C1 [Compound 433] |
| > 1250 | < 500 | > 1250 | Fc1ccc(N2CCN3CCCC3C2)nc1-c1n[nH]c2ncccc12 (stereo not drawn) [Compound 290] |
| > 1250 | < 500 | > 1250 | CC(C)CC1(N)CCCN(c2ccc(C(F)(F)F)c(-c3n[nH]c4ncccc34)n2)C1 (stereo not drawn) [Compound 285] |
| < 50 | < 1 | < 500 | CC(C)C(C)(O)C1CN(c2nc(-c3n[nH]c4ncccc34)c(F)cc2F)CCN1 (stereo not drawn) [Compound 425] |
| > 1250 | > 700 | > 1250 | NC[C@@H]1CCCN1c1ccc(F)c(-c2n[nH]c3ncccc23)n1 [Compound 355] |
| > 1250 | < 500 | > 1250 | CC(C)C(C)(O)C1CN(c2cc(C(F)(F)F)cc(-c3n[nH]c4ncccc34)n2)CCN1 (stereo not drawn) [Compound 342] |
| > 1250 | < 500 | > 1250 | N#CCCC1CN(c2ccc(F)c(-c3n[nH]c4ncccc34)n2)CCC1O (stereo not drawn) [Compound 458] |
| > 1250 | < 500 | > 1250 | CC(C)CC1CN(c2cc(C(F)(F)F)cc(-c3n[nH]c4ncccc34)n2)CCC1N (stereo not drawn) [Compound 419] |
| < 2800 | < 50 | > 1250 | CC(C)C[C@@H]1C[C@@H](N)CN(c2ccc(F)c(-c3n[nH]c4ncccc34)n2)C1 [Compound 367] |
| < 500 | < 500 | > 1250 | COC(=O)C1(CC(C)C)CN(c2ccc(C(F)(F)F)c(-c3n[nH]c4ncccc34)n2)CCC1N (stereo not drawn) [Compound 402] |
| > 1250 | < 500 | > 1250 | NCC1CN(c2ccc(F)c(-c3n[nH]c4ncccc34)n2)C1 [Compound 387] |
| > 1250 | > 700 | > 1250 | CCC[C@H]1CN(c2ccc(C(F)(F)F)c(-c3n[nH]c4ncccc34)n2)C[C@@H]1N [Compound 341] |
| < 2800 | < 50 | > 1250 | CC(C)CC(N)C1CCCN(c2ccc(F)c(-c3n[nH]c4ncccc34)n2)C1 (stereo not drawn) [Compound 299] |
| > 1250 | < 50 | > 1250 | CC(C)C(N)[C@H]1CCCN(c2ccc(F)c(-c3n[nH]c4ncccc34)n2)C1 (stereo partly drawn) [Compound 270] |
| > 1250 | < 500 | > 1250 | CC(C)C[C@@H]1C[C@H](N)CN(c2ccc(C(F)(F)F)c(-c3n[nH]c4ncccc34)n2)C1 [Compound 364] |
